Source: paper PMC13095408, “DBeQ derivative targets vacuolar protein sorting 4 functions in cancer cells and suppresses tumor growth in mice” (The Journal of Pharmacology and Experimental Therapeutics, 2025)

Legend:
[1] = tested on: GFP-CHMP4B-expressing U2OS cells; assay: GFP-CHMP4B accumulation cell-based assay (high-content microscopy)
Protocol: Plates were then scanned using the 20× objective for 1 hour with ≥100 cells/well across 6 fields/well. […] For all other assays, the cells were cultured overnight in black glass-bottom 96-well plates (Cellvis; P96-1.5H-N) then stained, rinsed, and treated with SM containing the indicated compounds (0.1% DMSO or 0.1% DMSO/0.1% ethanol [vehicle] final). Plates were scanned using the 20× NA .70 objective at the indicated intervals with ≥ 300 cells/well across 3 fields/well. […]

VPS4B = target: T1, VPS4B (Homo sapiens, UniProt O75351); assay: VPS4B ATPase activity, EnzChek Phosphate assay; format: biochemical; design: His tag (pET28a vector-encoded) (N); made in house; host or cells: Escherichia coli BL21(DE3)
T1 sequence (O75351 1-444): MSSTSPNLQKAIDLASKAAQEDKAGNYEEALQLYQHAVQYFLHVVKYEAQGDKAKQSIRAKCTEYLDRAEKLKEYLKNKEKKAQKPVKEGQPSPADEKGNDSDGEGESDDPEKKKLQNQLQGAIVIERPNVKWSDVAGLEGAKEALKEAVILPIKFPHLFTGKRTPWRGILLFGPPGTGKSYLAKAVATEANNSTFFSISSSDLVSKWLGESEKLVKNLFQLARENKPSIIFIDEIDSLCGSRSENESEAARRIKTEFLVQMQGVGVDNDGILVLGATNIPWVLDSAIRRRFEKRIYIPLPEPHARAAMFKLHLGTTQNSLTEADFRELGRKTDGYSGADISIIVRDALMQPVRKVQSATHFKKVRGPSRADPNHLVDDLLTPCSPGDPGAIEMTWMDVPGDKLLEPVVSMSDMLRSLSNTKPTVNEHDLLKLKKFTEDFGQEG
Protocol: VPS4B and VCP ATPase activities were measured using the EnzChek Phosphate assay for the quantification of released phosphate. Assay buffers were based on literature precedents ([Cupido et al, 2019], [2021]) as follows: VPS4B buffer (20 mM HEPES-KOH, pH 7.4, 25 mM KOAc, 2 mM MgCl2, 5 mM (NH4)2SO4, 0.5 mM CaCl2, 2.5 mM DTT, 0.1 mg/mL BSA, 0.005% v/v Triton X-100), VCP buffer (20 mM HEPES-NaOH, pH 7.4, 20 mM NaCl, 10 mM MgCl2, 5 mM (NH4)2SO4, 0.5 mM CaCl2, 2.5 mM DTT, 0.1 mg/mL BSA, 0.005% v/v Triton X-100). In black clear-bottom 384-well plates, 22.5 μL of 5% DMSO or 40× test compounds diluted in the respective assay buffer was added to each well. ATPases were diluted to 1 μM in the respective buffers containing 2× EnzChek Phosphate assay coupling reagents of 400 μM MESG and 2 U of PNP, then 25 μL was added to each well. Plates were mixed at 1000 rpm for 30 minutes at RT while being protected from light. The reaction was initiated by adding 2.5 μL of 20 mM MgATP or water followed by mixing at 1200 rpm for 30 seconds at RT. Plates were measured at 360 nm using a CLARIOstar plate reader (BMG LABTECH) for 20 minutes at 37 °C. ATPase activity was calculated as the amount of phosphate released over a 5-minute interval under linear initial velocity conditions. The remaining ATPase activity was calculated by normalizing compound-treated activity values to the DMSO control. IC50 was calculated by fitting normalized values to a sigmoidal dose-response curve with Hill slope = −1 using Graph Pad Prism 10.0.
To identify VPS4i, we developed enzyme- and cell-based VPS4 functional assays to serve as VPS4i-screening platforms. For the enzyme-based assay, we used the colorimetric EnzChek Phosphate assay that detects free phosphate with the advantage of continuous measurement of ATP hydrolysis over time. […] Due to the high sequence and structural similarity of AAA-ATPases, we also established a VCP ATPase assay to evaluate hit selectivity. […] For the cell-based assay, our approach was based on how VPS4 inhibition causes the accumulation of ESCRT-III ([Babst et al, 1998]; [Katoh et al, 2003]). We used an N-terminal GFP-tagged CHMP4B reporter system because it is the most abundant ESCRT-III subunit ([Katoh et al, 2004]; [Teis et al, 2008]). Our aim was to test compounds under short-term serum and amino acid starvation to stimulate ESCRT activity for easier detection of inhibitors ([Takahashi et al, 2018], [2019]). […] Overall, we established 2 systems for VPS4i screening, a VPS4B ATPase activity assay and a GFP-CHMP4B accumulation cell-based assay.

[2] = screened at 1 µM, mean ± S.D., Supplemental Table 2
[3] = screened at 1 μM, starvation media, 1 hour, foci intensity per cell normalized to 4-107, mean ± SD, Table 1
[4] = remaining ATPase activity, screened at 5 μM, mean ± SD, Table 1
[5] = screened at 5 µM, mean ± S.D., Supplemental Table 2

SMILES	GFP-CHMP4B (% 4-107) [1, 2] [% 4-107]	GFP-CHMP4B (% 4-107) [1, 3] [% 4-107]	VPS4B ATPase (% DMSO) (VPS4B; [4])	VPS4B ATPase (% DMSO) (VPS4B; [5])
COc1cccc2c(NCc3ccccc3)nc(-c3cccc4ccccc34)nc12 [Compound 10]	3.97 ± 0.16	3.97 ± 0.16	49.12 ± 2.89	49.12 ± 2.89
COc1cccc2c(NCCc3ccccc3)nc(N[C@@H](C)c3ccc4ccccc4c3)nc12 [Compound 5-97]	1.82 ± 0.02	–	–	49.73 ± 0.04
COc1cccc2c(NCc3ccccc3)nc(NCc3cccc(OC(F)(F)F)c3)nc12 [Compound 7-11]	22.15 ± 1.19	–	–	46.29 ± 0.61
COc1cccc2c(NCc3ccc(Cl)cc3)nc(NCc3ccc(Cl)cc3)nc12 [Compound 5-07]	14.56 ± 10.71	–	–	28.5 ± 0.04
COc1cccc2c(NCCc3ccccc3)nc(NCc3nc4ccccc4s3)nc12 [Compound 5-107]	0.24 ± 0.08	–	–	75.99 ± 2.63
COc1ncnc2c1ccn2-c1nc(NCCc2ccccc2)c2cccc(OC)c2n1 [Compound 5-53]	1.68 ± 0.33	–	–	72.71 ± 0.81
COC(=O)c1ccc2ccn(-c3nc(NCc4ccccc4)c4cccc(OC)c4n3)c2c1 [Compound 8]	1.38 ± 0.73	1.38 ± 0.73	82.10 ± 2.19	82.10 ± 2.19
COc1cccc2c(NCCc3ccccc3)nc(NCc3ccccc3)nc12 [Compound 5-73]	5.34 ± 1.17	–	–	41.71 ± 2.35
COc1cccc2c(NCc3ccccc3)nc(-n3ccc4ccc(C(=O)O)cc43)nc12 [Compound 5-39-iv]	1.59 ± 0.93	–	–	93.04 ± 0.65
COc1cccc2c(NCc3ccccc3)nc(N[C@@H](C)c3ccc4ccccc4c3)nc12 [Compound 5-93]	5.34 ± 4.29	–	–	58.00 ± 2.01
COc1cccc2c(NCc3ccccc3)nc(-n3ccc4cc(C(=O)O)ccc43)nc12 [Compound 5-41-iv]	1.29 ± 1.06	–	–	87.4 ± 1.43
COc1cccc2c(NCc3ccccc3)nc(Nc3cccc4cc5ccccc5cc34)nc12 [Compound 5-129]	1.25 ± 0.86	–	–	63.24 ± 0.19
COc1cccc2c(NCc3ccccc3)nc(-n3ccc4c(C(N)=O)cccc43)nc12 [Compound 5-139]	1.75 ± 0.11	–	–	90.05 ± 5.58
COc1cccc2c(NCCc3ccccc3)nc(N[C@H](C)c3ccccc3)nc12 [Compound 5-91]	1.69 ± 0.12	–	–	40.44 ± 0.01
COc1cccc2c(NCc3ccccc3)nc(N[C@H](C)c3ccc4ccccc4c3)nc12 [Compound 5-95]	2.43 ± 1.04	–	–	42.87 ± 1.98
COc1cccc2c(NCc3cccc(C(=O)O)c3)nc(NCc3cccc(C(=O)O)c3)nc12 [Compound 4-131-iv]	1.10 ± 0.68	–	–	105.12 ± 0.39
NCc1ccccc1 [Compound 2]	6.69 ± 3.07	6.69 ± 3.07	55.31 ± 5.04	55.31 ± 5.04

SMILES	GFP-CHMP4B (% 4-107) [1, 2] [% 4-107]	GFP-CHMP4B (% 4-107) [1, 3] [% 4-107]	VPS4B ATPase (% DMSO) (VPS4B; [4])	VPS4B ATPase (% DMSO) (VPS4B; [5])
COc1cccc2c(NCc3ccccc3)nc(-n3ccc4c(C(=O)O)cccc43)nc12 [Compound 5-137]	2.21 ± 0.41	–	–	96.09 ± 2.11
COc1cccc2c(NCc3cccc(OC(F)(F)F)c3)nc(NCc3ccccc3)nc12.Cl [Compound 5-33-iv]	5.27 ± 1.53	–	–	25.77 ± 2.48
COc1cccc2c(NCc3ccccc3)nc(NCc3cccc(C(F)(F)F)c3)nc12 [Compound 15]	25.61 ± 20.09	25.61 ± 20.09	28.57 ± 1.13	28.57 ± 1.13
COc1cccc2c(NCc3ccccc3)nc(NC(c3ccc(F)cc3)c3ccc(F)cc3)nc12 [Compound 7-13]	12.60 ± 1.04	–	–	39.86 ± 1.36
COc1cccc2c(NCc3ccccc3)nc(N[C@@H](C)c3cccc4ccccc34)nc12 [Compound 5-101]	2.43 ± 1.02	–	–	49.27 ± 0.19
COc1cccc2c(NCc3ccccc3)nc(Nc3ccc4ncsc4c3)nc12 [Compound 5-69]	2.10 ± 1.22	–	–	51.27 ± 1.54
O=[N+]([O-])c1cccc2c(NCc3ccccc3)nc(NCc3ccccc3)nc12 [Compound 5]	15.05 ± 0.55	15.05 ± 0.55	86.38 ± 2.37	86.38 ± 2.37
COc1cccc2c(NCc3ccccc3)nc(NCCc3ccccc3)nc12 [Compound 5-75]	2.25 ± 1.07	–	–	45.53 ± 1.40
COc1cccc2c(NCc3ccc(C(F)(F)F)cc3)nc(-n3ccc4cncnc43)nc12 [Compound 5-55]	2.25 ± 0.55	–	–	93.20 ± 1.22
COc1cccc2c(NCc3ccncc3)nc(NCc3ccncc3)nc12 [Compound 5-11]	1.10 ± 0.76	–	–	82.46 ± 1.64
COc1cccc2c(NCc3ccccc3)nc(NCc3ccc4ccccc4c3)nc12 [Compound 12]	10.42 ± 6.42	10.42 ± 6.42	30.39 ± 0.43	30.39 ± 0.43
COc1cccc2c(NCCc3ccccc3)nc(N[C@H](C)c3ccc4ccccc4c3)nc12 [Compound 5-99]	3.40 ± 1.02	–	–	45.77 ± 2.14
COc1cccc2c(NCc3ccccc3)nc(Nc3ccc4ccccc4c3)nc12.Cl [Compound 5-79]	3.40 ± 0.70	–	–	76.35 ± 3.47
COc1cccc2c(NCc3ccccc3)nc(N[C@H](C)c3ccccc3)nc12 [Compound 5-89]	9.13 ± 2.82	–	–	46.68 ± 2.80
COc1cccc2c(NCCc3ccccc3)nc(-n3ccc4cncnc43)nc12 [Compound 5-59]	2.84 ± 0.06	–	–	97.54 ± 1.15
COc1cccc2c(NCCc3ccccc3)nc(NCCc3ccccc3)nc12 [Compound 5-03]	2.31 ± 1.75	–	–	30.96 ± 1.37
